From the supplement of paper PMC10307832

Legend:
Assay in all cases: relative viability (nuclei count vs DMSO), 5 days (fraction); higher = more cells survive
Ruxolitinib + Pemetrexed = compound: N#CC[C@H](C1CCCC1)n1cc(-c2ncnc3[nH]ccc23)cn1 [Ruxolitinib] + Nc1nc2[nH]cc(CCc3ccc(C(=O)N[C@@H](CCC(=O)O)C(=O)O)cc3)c2c(=O)[nH]1 [Pemetrexed] (partner 0.2 µM)
Method in brief: (§1)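 Relative viability is defined as nuclei in treated wells over nuclei in vehicle wells. Duplicate plates were run and medians reported. Lung cancer cell lines in 1536-well plates were dosed by pin tool one day after seeding, with one drug or with a fixed anchor-drug dose plus five library-drug doses (not always all listed) in √10 steps, and nuclei were counted after 5 days.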

Vismodegib + Bortezomib = compound: CS(=O)(=O)c1ccc(C(=O)Nc2ccc(Cl)c(-c3ccccn3)c2)c(Cl)c1 [Vismodegib] + CC(C)C[C@H](NC(=O)[C@H](Cc1ccccc1)NC(=O)c1cnccn1)B(O)O [Bortezomib] (partner 0.002 µM)
Method in brief: as §1

Vismodegib + Tozasertib = compound: CS(=O)(=O)c1ccc(C(=O)Nc2ccc(Cl)c(-c3ccccn3)c2)c(Cl)c1 [Vismodegib] + Cc1cc(Nc2cc(N3CCN(C)CC3)nc(Sc3ccc(NC(=O)C4CC4)cc3)n2)n[nH]1 [Tozasertib] (partner 0.1 µM)
Method in brief: as §1

Ruxolitinib + Navitoclax = compound: N#CC[C@H](C1CCCC1)n1cc(-c2ncnc3[nH]ccc23)cn1 [Ruxolitinib] + CC1(C)CCC(c2ccc(Cl)cc2)=C(CN2CCN(c3ccc(C(=O)NS(=O)(=O)c4ccc(N[C@H](CCN5CCOCC5)CSc5ccccc5)c(S(=O)(=O)C(F)(F)F)c4)cc3)CC2)C1 [Navitoclax] (partner 0.5 µM)
Method in brief: as §1

## PC-3 [JPC-3]
Ruxolitinib + Pemetrexed; first compound 0.253 µM
  relative viability: 1.13
Ruxolitinib + Pemetrexed; first compound 0.8 µM
  relative viability: 1.18
Ruxolitinib + Pemetrexed; first compound 2.53 µM
  relative viability: 1.11
Ruxolitinib + Pemetrexed; first compound 8 µM
  relative viability: 0.907
Vismodegib + Bortezomib; first compound 0.08 µM
  relative viability: 0.827
Vismodegib + Bortezomib; first compound 0.253 µM
  relative viability: 0.929
Vismodegib + Bortezomib; first compound 0.8 µM
  relative viability: 0.786
Vismodegib + Bortezomib; first compound 2.53 µM
  relative viability: 0.766
Vismodegib + Bortezomib; first compound 8 µM
  relative viability: 0.93
Vismodegib + Tozasertib; first compound 0.08 µM
  relative viability: 0.932
Vismodegib + Tozasertib; first compound 0.253 µM
  relative viability: 0.87
Vismodegib + Tozasertib; first compound 0.8 µM
  relative viability: 0.933
Vismodegib + Tozasertib; first compound 2.53 µM
  relative viability: 0.852
Vismodegib + Tozasertib; first compound 8 µM
  relative viability: 0.873
Ruxolitinib + Navitoclax; first compound 0.08 µM
  relative viability: 0.69
Ruxolitinib + Navitoclax; first compound 0.253 µM
  relative viability: 0.771
Ruxolitinib + Navitoclax; first compound 0.8 µM
  relative viability: 0.771
Ruxolitinib + Navitoclax; first compound 2.53 µM
  relative viability: 0.757
Ruxolitinib + Navitoclax; first compound 8 µM
  relative viability: 0.73

## NCI-H1666
Ruxolitinib + Pemetrexed; first compound 0.08 µM
  relative viability: 1.01
Ruxolitinib + Pemetrexed; first compound 0.253 µM
  relative viability: 0.814
Ruxolitinib + Pemetrexed; first compound 0.8 µM
  relative viability: 0.988
Ruxolitinib + Pemetrexed; first compound 2.53 µM
  relative viability: 0.786
Ruxolitinib + Pemetrexed; first compound 8 µM
  relative viability: 0.887
Vismodegib + Bortezomib; first compound 0.08 µM
  relative viability: 0.755
Vismodegib + Bortezomib; first compound 0.253 µM
  relative viability: 0.765
Vismodegib + Bortezomib; first compound 0.8 µM
  relative viability: 0.906
Vismodegib + Bortezomib; first compound 2.53 µM
  relative viability: 0.722
Vismodegib + Bortezomib; first compound 8 µM
  relative viability: 0.956
Vismodegib + Tozasertib; first compound 0.08 µM
  relative viability: 0.564
Vismodegib + Tozasertib; first compound 0.253 µM
  relative viability: 0.684
Vismodegib + Tozasertib; first compound 0.8 µM
  relative viability: 0.591
Vismodegib + Tozasertib; first compound 2.53 µM
  relative viability: 0.585
Vismodegib + Tozasertib; first compound 8 µM
  relative viability: 0.7
Ruxolitinib + Navitoclax; first compound 0.08 µM
  relative viability: 0.876
Ruxolitinib + Navitoclax; first compound 0.253 µM
  relative viability: 1.01
Ruxolitinib + Navitoclax; first compound 0.8 µM
  relative viability: 1.1
Ruxolitinib + Navitoclax; first compound 2.53 µM
  relative viability: 0.759
Ruxolitinib + Navitoclax; first compound 8 µM
  relative viability: 1.07

## NCI-H1915
Ruxolitinib + Pemetrexed; first compound 0.08 µM
  relative viability: 0.512
Ruxolitinib + Pemetrexed; first compound 0.253 µM
  relative viability: 0.501
Ruxolitinib + Pemetrexed; first compound 0.8 µM
  relative viability: 0.515
Ruxolitinib + Pemetrexed; first compound 2.53 µM
  relative viability: 0.518
Ruxolitinib + Pemetrexed; first compound 8 µM
  relative viability: 0.439
Vismodegib + Bortezomib; first compound 0.08 µM
  relative viability: 1.05
Vismodegib + Bortezomib; first compound 0.253 µM
  relative viability: 0.976
Vismodegib + Bortezomib; first compound 0.8 µM
  relative viability: 0.985
Vismodegib + Bortezomib; first compound 2.53 µM
  relative viability: 0.905
Vismodegib + Bortezomib; first compound 8 µM
  relative viability: 0.953
Vismodegib + Tozasertib; first compound 0.08 µM
  relative viability: 0.431
Vismodegib + Tozasertib; first compound 0.253 µM
  relative viability: 0.386
Vismodegib + Tozasertib; first compound 0.8 µM
  relative viability: 0.466
Vismodegib + Tozasertib; first compound 2.53 µM
  relative viability: 0.413
Vismodegib + Tozasertib; first compound 8 µM
  relative viability: 0.414
Ruxolitinib + Navitoclax; first compound 0.08 µM
  relative viability: 0.79
Ruxolitinib + Navitoclax; first compound 0.253 µM
  relative viability: 0.838
Ruxolitinib + Navitoclax; first compound 0.8 µM
  relative viability: 0.791
Ruxolitinib + Navitoclax; first compound 2.53 µM
  relative viability: 0.731
Ruxolitinib + Navitoclax; first compound 8 µM
  relative viability: 0.691

## HCC-15
Ruxolitinib + Pemetrexed; first compound 0.08 µM
  relative viability: 0.223
Ruxolitinib + Pemetrexed; first compound 0.253 µM
  relative viability: 0.227
Ruxolitinib + Pemetrexed; first compound 0.8 µM
  relative viability: 0.212
Ruxolitinib + Pemetrexed; first compound 2.53 µM
  relative viability: 0.194
Ruxolitinib + Pemetrexed; first compound 8 µM
  relative viability: 0.203
Vismodegib + Bortezomib; first compound 0.08 µM
  relative viability: 0.978
Vismodegib + Bortezomib; first compound 0.253 µM
  relative viability: 1.07
Vismodegib + Bortezomib; first compound 0.8 µM
  relative viability: 0.938
Vismodegib + Bortezomib; first compound 2.53 µM
  relative viability: 1.09
Vismodegib + Bortezomib; first compound 8 µM
  relative viability: 1
Vismodegib + Tozasertib; first compound 0.08 µM
  relative viability: 0.415
Vismodegib + Tozasertib; first compound 0.253 µM
  relative viability: 0.444
Vismodegib + Tozasertib; first compound 0.8 µM
  relative viability: 0.386
Vismodegib + Tozasertib; first compound 2.53 µM
  relative viability: 0.399
Vismodegib + Tozasertib; first compound 8 µM
  relative viability: 0.424
Ruxolitinib + Navitoclax; first compound 0.08 µM
  relative viability: 0.688
Ruxolitinib + Navitoclax; first compound 0.253 µM
  relative viability: 0.686
Ruxolitinib + Navitoclax; first compound 0.8 µM
  relative viability: 0.699
Ruxolitinib + Navitoclax; first compound 2.53 µM
  relative viability: 0.629
Ruxolitinib + Navitoclax; first compound 8 µM
  relative viability: 0.567

## EKVX
Ruxolitinib + Pemetrexed; first compound 0.253 µM
  relative viability: 0.403
Ruxolitinib + Pemetrexed; first compound 0.8 µM
  relative viability: 0.41
Ruxolitinib + Pemetrexed; first compound 2.53 µM
  relative viability: 0.402
Ruxolitinib + Pemetrexed; first compound 8 µM
  relative viability: 0.237
Vismodegib + Bortezomib; first compound 0.08 µM
  relative viability: 1.1
Vismodegib + Bortezomib; first compound 0.253 µM
  relative viability: 1.09
Vismodegib + Bortezomib; first compound 0.8 µM
  relative viability: 1.1
Vismodegib + Bortezomib; first compound 2.53 µM
  relative viability: 1.06
Vismodegib + Bortezomib; first compound 8 µM
  relative viability: 1.03
Vismodegib + Tozasertib; first compound 0.08 µM
  relative viability: 0.392
Vismodegib + Tozasertib; first compound 0.253 µM
  relative viability: 0.358
Vismodegib + Tozasertib; first compound 0.8 µM
  relative viability: 0.409
Vismodegib + Tozasertib; first compound 2.53 µM
  relative viability: 0.414
Vismodegib + Tozasertib; first compound 8 µM
  relative viability: 0.373
Ruxolitinib + Navitoclax; first compound 0.08 µM
  relative viability: 1
Ruxolitinib + Navitoclax; first compound 0.253 µM
  relative viability: 0.872
Ruxolitinib + Navitoclax; first compound 0.8 µM
  relative viability: 0.881
Ruxolitinib + Navitoclax; first compound 2.53 µM
  relative viability: 0.821
Ruxolitinib + Navitoclax; first compound 8 µM
  relative viability: 0.912

## PC-14
Ruxolitinib + Pemetrexed; first compound 0.253 µM
  relative viability: 0.117
Ruxolitinib + Pemetrexed; first compound 0.8 µM
  relative viability: 0.122
Ruxolitinib + Pemetrexed; first compound 2.53 µM
  relative viability: 0.139
Ruxolitinib + Pemetrexed; first compound 8 µM
  relative viability: 0.12
Vismodegib + Bortezomib; first compound 0.08 µM
  relative viability: 0.802
Vismodegib + Bortezomib; first compound 0.253 µM
  relative viability: 0.779
Vismodegib + Bortezomib; first compound 0.8 µM
  relative viability: 0.994
Vismodegib + Bortezomib; first compound 2.53 µM
  relative viability: 0.761
Vismodegib + Bortezomib; first compound 8 µM
  relative viability: 0.755
Vismodegib + Tozasertib; first compound 0.08 µM
  relative viability: 0.554
Vismodegib + Tozasertib; first compound 0.253 µM
  relative viability: 0.606
Vismodegib + Tozasertib; first compound 0.8 µM
  relative viability: 0.556
Vismodegib + Tozasertib; first compound 2.53 µM
  relative viability: 0.539
Vismodegib + Tozasertib; first compound 8 µM
  relative viability: 0.547
Ruxolitinib + Navitoclax; first compound 0.253 µM
  relative viability: 1.03
Ruxolitinib + Navitoclax; first compound 0.8 µM
  relative viability: 1.01
Ruxolitinib + Navitoclax; first compound 2.53 µM
  relative viability: 0.927
Ruxolitinib + Navitoclax; first compound 8 µM
  relative viability: 0.723

## NCI-H1650
Ruxolitinib + Pemetrexed; first compound 0.08 µM
  relative viability: 0.311
Ruxolitinib + Pemetrexed; first compound 0.253 µM
  relative viability: 0.43
Ruxolitinib + Pemetrexed; first compound 0.8 µM
  relative viability: 0.351
Ruxolitinib + Pemetrexed; first compound 2.53 µM
  relative viability: 0.333
Ruxolitinib + Pemetrexed; first compound 8 µM
  relative viability: 0.346
Vismodegib + Bortezomib; first compound 0.08 µM
  relative viability: 0.196
Vismodegib + Bortezomib; first compound 0.253 µM
  relative viability: 0.314
Vismodegib + Bortezomib; first compound 0.8 µM
  relative viability: 0.198
Vismodegib + Bortezomib; first compound 2.53 µM
  relative viability: 0.205
Vismodegib + Bortezomib; first compound 8 µM
  relative viability: 0.191
Vismodegib + Tozasertib; first compound 0.08 µM
  relative viability: 0.413
Vismodegib + Tozasertib; first compound 0.253 µM
  relative viability: 0.365
Vismodegib + Tozasertib; first compound 0.8 µM
  relative viability: 0.315
Vismodegib + Tozasertib; first compound 2.53 µM
  relative viability: 0.286
Vismodegib + Tozasertib; first compound 8 µM
  relative viability: 0.34
Ruxolitinib + Navitoclax; first compound 0.253 µM
  relative viability: 1.05
Ruxolitinib + Navitoclax; first compound 0.8 µM
  relative viability: 1.23
Ruxolitinib + Navitoclax; first compound 2.53 µM
  relative viability: 0.96
Ruxolitinib + Navitoclax; first compound 8 µM
  relative viability: 0.971

## NCI-H1355
Ruxolitinib + Pemetrexed; first compound 0.08 µM
  relative viability: 1.1
Ruxolitinib + Pemetrexed; first compound 0.253 µM
  relative viability: 0.977
Ruxolitinib + Pemetrexed; first compound 0.8 µM
  relative viability: 1.09
Ruxolitinib + Pemetrexed; first compound 2.53 µM
  relative viability: 1.02
Ruxolitinib + Pemetrexed; first compound 8 µM
  relative viability: 1.01
Vismodegib + Bortezomib; first compound 0.08 µM
  relative viability: 1.23
Vismodegib + Bortezomib; first compound 0.253 µM
  relative viability: 1.18
Vismodegib + Bortezomib; first compound 0.8 µM
  relative viability: 1.12
Vismodegib + Bortezomib; first compound 2.53 µM
  relative viability: 1.1
Vismodegib + Bortezomib; first compound 8 µM
  relative viability: 1.11
Vismodegib + Tozasertib; first compound 0.08 µM
  relative viability: 0.568
Vismodegib + Tozasertib; first compound 0.253 µM
  relative viability: 0.557
Vismodegib + Tozasertib; first compound 0.8 µM
  relative viability: 0.613
Vismodegib + Tozasertib; first compound 2.53 µM
  relative viability: 0.577
Vismodegib + Tozasertib; first compound 8 µM
  relative viability: 0.548
Ruxolitinib + Navitoclax; first compound 0.08 µM
  relative viability: 0.924
Ruxolitinib + Navitoclax; first compound 0.253 µM
  relative viability: 0.925
Ruxolitinib + Navitoclax; first compound 0.8 µM
  relative viability: 0.992
Ruxolitinib + Navitoclax; first compound 2.53 µM
  relative viability: 0.807
Ruxolitinib + Navitoclax; first compound 8 µM
  relative viability: 0.701
